{"source": "patent US6930203B2", "about": "“Gelling agents or thickeners” (Applied NanoSystems B.V., priority 2001, dated 2005)", "format_in_all_cases": "physicochemical", "key": {"[1]": {"assay": "Phase diagram, dropping ball method", "details": "in cyclohexane, silicon oil and p-xylene", "protocol": "FIG. 1 depicts a phase diagram of 5 (C6-Glu-C6) and 15 (C12-Glu-C12) determined with the dropping ball method.\nPhase Diagram of 5 (C6-Glu-C6) and 15 (C12-Glu-C12)) Dropping Ball Method)\nThe phase diagram of 5 (C6-Glu-C6) and 15 (C12-Glu-C12) was determined (see FIG. 1) by using the dropping ball method (A. Takashi, M. Sakai, T. Kato, Polym. J., 12 (1980) 335-341, F. S. Schoonbeek, J. H. van Esch, R. Hulst, R. M. Kellogg, B. L. Feringa, Chem. Eur. J., 6 (2000) 2633-2643)."}, "[2]": {"assay": "Cold gelation: addition of a solution of the gelling agent (10% in NMP, 0.05 ml) to an organic solution (0.5 ml)", "design": "key: g = gelation; s = soluble; p = precipitates; c = crystallizes; ns = not soluble; v = viscous; g* = unstable gel, precipitates; cg = crystalline gel", "excerpt": "(§1) Preferred examples include aromatic and nonaromatic hydrocarbons, alcohols, ethers, esters, aldehydes, alkanoic acids, epoxides, amines, halogenated hydrocarbons, silicon oils, vegetable oils, phosphoric esters, sulfoxides, water and mixtures thereof. In order to obtain a gel, the gelling agent or thickener is preferably mixed with the composition to be transformed to a gel in an amount of between 0.01 and 50 wt. %, based on the weight of the composition. In a preferred embodiment, the mixture of the gelling agent or thickener and the composition is heated to allow for an even better gel formation or thickening. Typically, the heating will involve raising the temperature of the mixture to about 30-175° C. until a clear solution is obtained. In an alternative embodiment, the gelling agent is first dissolved in a polar or apolar solvent and then added to or sprayed into a composition or solvent to be converted into a gel.\nAddition of a solution of the gelling agent (10% in NMP, 0.05 ml) to an organic solution (0.5 ml, “cold gelation”)"}, "[3]": {"assay": "Gelation of N,N′-dialkyladaramides (1%) in mixtures of solvents", "design": "key: g = gelation; s = soluble; p = precipitates; c = crystallizes; ns = not soluble; v = viscous; g* = unstable gel, precipitates; cg = crystalline gel", "details": "1% gelling agent", "excerpt": "as §1\nGelation of N,N′-dialkyladaramides (1%) in Mixtures of Solvents"}, "[4]": {"assay": "Maximum gelator concentration", "excerpt": "Maximum gelator concentration of 5 (C6-Glu-C6) and 15 (C12-Glu-C12)"}, "[5]": {"assay": "Solvent scope of N,N′-dialkylaldaramides (1%) or N,N′-dialkylpentaramides (1%): gelation/solubility behaviour in solvents", "design": "key: g = gelation; s = soluble; p = precipitates; c = crystallizes; ns = not soluble; v = viscous; g* = unstable gel, precipitates; cg = crystalline gel", "details": "1% gelling agent", "excerpt": "It will be understood that the use of the present gelling agents or thickeners to prepare a gel or to thicken a composition is also encompassed by the invention. As is well known, gelling behavior of compounds or compositions is highly unpredictable. […] Preferably, the gelling phenomenon is thermo reversible.\nas §1\nSolvent scope of N,N′-dialkylaldaramides (1%) or N,N′-dialkylpentaramides (1%) 1-24 refers to the compounds prepared in Examples 1-23)"}}}
{"molecule": "O=C(NC1CCCCCCCCCCC1)[C@@H](O)[C@@H](O)[C@H](O)[C@@H](O)C(=O)NC1CCCCCCCCCCC1", "note": "[Example 15, dicyclododecyl D-glucaramide]", "values": [{"measurement": "Correlation between Tm^−1 and the logarithm of the mole fraction", "setting": "[1]", "result": "linear correlation"}, {"measurement": "Cold gelation in 1,2-dichloroethane", "setting": "[2]; 0.05 ml added to 0.5 ml 1,2-dichloroethane", "result": "c"}, {"measurement": "Cold gelation in Acetone", "setting": "[2]; 0.05 ml added to 0.5 ml Acetone", "result": "cg"}, {"measurement": "Cold gelation in Acetonitril", "setting": "[2]; 0.05 ml added to 0.5 ml Acetonitril", "result": "g"}, {"measurement": "Cold gelation in Chloroform", "setting": "[2]; 0.05 ml added to 0.5 ml Chloroform", "result": "s"}, {"measurement": "Cold gelation in Heptane", "setting": "[2]; 0.05 ml added to 0.5 ml Heptane", "result": "p"}, {"measurement": "Cold gelation in Hexane", "setting": "[2]; 0.05 ml added to 0.5 ml Hexane", "result": "p"}, {"measurement": "Cold gelation in Toluene", "setting": "[2]; 0.05 ml added to 0.5 ml Toluene", "result": "g"}, {"measurement": "Cold gelation in benzaldehyde", "setting": "[2]; 0.05 ml added to 0.5 ml benzaldehyde", "result": "s"}, {"measurement": "Cold gelation in cyclohexane", "setting": "[2]; 0.05 ml added to 0.5 ml cyclohexane", "result": "g"}, {"measurement": "Cold gelation in diethyl ether", "setting": "[2]; 0.05 ml added to 0.5 ml diethyl ether", "result": "g"}, {"measurement": "Cold gelation in ethylacetate", "setting": "[2]; 0.05 ml added to 0.5 ml ethylacetate", "result": "p"}, {"measurement": "Cold gelation in methyl laurate", "setting": "[2]; 0.05 ml added to 0.5 ml methyl laurate", "result": "g"}, {"measurement": "Cold gelation in n-butyl acetate", "setting": "[2]; 0.05 ml added to 0.5 ml n-butyl acetate", "result": "g"}, {"measurement": "Cold gelation in silicon oil", "setting": "[2]; 0.05 ml added to 0.5 ml silicon oil", "result": "g"}, {"measurement": "Cold gelation in tetrahydrofuran", "setting": "[2]; 0.05 ml added to 0.5 ml tetrahydrofuran", "result": "c"}, {"measurement": "Gelation in cyclohexane", "setting": "[3]; Cyclohexane", "result": "g"}, {"measurement": "Gelation in Dioxane", "setting": "[3]; Dioxane", "result": "cg"}, {"measurement": "Gelation in H2O", "setting": "[3]; H2O", "result": "ns"}, {"measurement": "Gelation in cyclohexane/dioxane 1:1", "setting": "[3]; cyclohexane/dioxane 1:1", "result": "cg"}, {"measurement": "Gelation in dioxane/H2O 1:1", "setting": "[3]; dioxane/H2O 1:1", "result": "g"}, {"measurement": "Gelation in dioxane/H2O 1:2", "setting": "[3]; dioxane/H2O 1:2", "result": "ns"}, {"measurement": "Gelation in dioxane/H2O 2:1", "setting": "[3]; dioxane/H2O 2:1", "result": "cg"}, {"measurement": "Gelation in dioxane/H2O 3:1", "setting": "[3]; dioxane/H2O 3:1", "result": "cg"}, {"measurement": "Maximum gelator concentration in 1,2-dichloroethane", "setting": "[4]; 1,2-dichloroethane", "result": "<50", "unit": "%"}, {"measurement": "Maximum gelator concentration in Toluene", "setting": "[4]; Toluene", "result": "<50", "unit": "%"}, {"measurement": "Maximum gelator concentration in cyclohexane", "setting": "[4]; cyclohexane", "result": "<5", "unit": "%"}, {"measurement": "Maximum gelator concentration in methyl laurate", "setting": "[4]; methyl laurate", "result": "<5", "unit": "%"}, {"measurement": "Maximum gelator concentration in n-butylacetate", "setting": "[4]; n-butylacetate", "result": "<50", "unit": "%"}, {"measurement": "Maximum gelator concentration in silicon oil (Dow Corning 702)", "setting": "[4]; silicon oil (Dow Corning 702)", "result": "<50", "unit": "%"}, {"measurement": "Gelation/solubility behaviour in 1,2-dichloroethane", "setting": "[5]; 1,2-dichloroethane", "result": "g"}, {"measurement": "Gelation/solubility behaviour in 2-methoxyethanol", "setting": "[5]; 2-methoxyethanol", "result": "c"}, {"measurement": "Gelation/solubility behaviour in 2-octanol", "setting": "[5]; 2-octanol", "result": "s"}, {"measurement": "Gelation/solubility behaviour in 2-propanol", "setting": "[5]; 2-propanol", "result": "c"}, {"measurement": "Gelation/solubility behaviour in Cyclohexane", "setting": "[5]; Cyclohexane", "result": "g"}, {"measurement": "Gelation/solubility behaviour in Dimethylsulfoxide", "setting": "[5]; Dimethylsulfoxide", "result": "cg"}, {"measurement": "Gelation/solubility behaviour in Ethanol", "setting": "[5]; Ethanol", "result": "cg"}, {"measurement": "Gelation/solubility behaviour in Hexadecane", "setting": "[5]; Hexadecane", "result": "ns"}, {"measurement": "Gelation/solubility behaviour in Toluene", "setting": "[5]; Toluene", "result": "g"}, {"measurement": "Gelation/solubility behaviour in Water", "setting": "[5]; Water", "result": "ns"}, {"measurement": "Gelation/solubility behaviour in methyl benzoic acid", "setting": "[5]; methyl benzoic acid", "result": "g"}, {"measurement": "Gelation/solubility behaviour in methyl laurate", "setting": "[5]; methyl laurate", "result": "g"}, {"measurement": "Gelation/solubility behaviour in n-butylacetate", "setting": "[5]; n-butylacetate", "result": "g"}, {"measurement": "Gelation/solubility behaviour in p-xylene", "setting": "[5]; p-xylene", "result": "g"}, {"measurement": "Gelation/solubility behaviour in silicon oil", "setting": "[5]; silicon oil", "result": "g"}]}
